The values that follow come from ChEMBL document CHEMBL3734742, “Discovery of 2-aryloxy-4-amino-quinazoline derivatives as novel protease-activated receptor 2 (PAR2) antagonists” (Bioorg Med Chem, 2015).

The source made the active and inactive calls. No cut-off for these calls is given here.

Data set [1] has as its target Proteinase-activated receptor 2 (Homo sapiens) (UniProt P55085). Description: Antagonist activity at protease-activated receptor 2 (unknown origin) expressed in CHO-K1 cells assessed as inhibition of trypsin-induced calcium flux at 10 uM by FLIPR assay. It is filed as functional, cell-based.
For data set [2] the target is unchanged. In words: Antagonist activity at trypsin-induced protease-activated receptor 2 activation (unknown origin) expressed in CHO-K1 cells assessed as receptor internalization at 30 uM after 1 hr by immuno-fluorescence assay (reference value: 28%). The arrangement: scale not given: the % may be the effect or the level left. It is filed as cell-based.
Data set [3] concerns RAW264.7. In words: Antiinflammatory activity in mouse RAW264.7 cells assessed as inhibition of LPS-induced PGE2 production at 3 uM for 1 hr followed by stimulation with LPS for 24 hrs […]. It is filed as functional, cell-based.
In data set [4] the target is T1, Proteinase-activated receptor 2 (Homo sapiens, UniProt P55085).
T1 sequence (P55085 whole entry): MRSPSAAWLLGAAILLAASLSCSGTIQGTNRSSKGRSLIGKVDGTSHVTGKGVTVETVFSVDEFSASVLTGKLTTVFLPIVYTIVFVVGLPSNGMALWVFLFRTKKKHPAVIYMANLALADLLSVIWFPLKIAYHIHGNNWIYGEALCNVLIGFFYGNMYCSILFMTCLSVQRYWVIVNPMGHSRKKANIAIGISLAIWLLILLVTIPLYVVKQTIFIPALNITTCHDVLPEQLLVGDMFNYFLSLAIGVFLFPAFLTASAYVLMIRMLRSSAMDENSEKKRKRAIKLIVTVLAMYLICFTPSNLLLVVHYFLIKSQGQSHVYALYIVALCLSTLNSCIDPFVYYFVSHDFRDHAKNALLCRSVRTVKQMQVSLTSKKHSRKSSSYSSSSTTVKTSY
In words: Antagonist activity at protease-activated receptor 2 (unknown origin) expressed in CHO-K1 cells assessed as inhibition of trypsin-induced calcium flux by FLIPR assay. It is filed as functional, cell-based.

Data set [5] deals with T1, Proteinase-activated receptor 2. Description: Antagonist activity at protease-activated receptor 2 (unknown origin).
For data set [6] the target is unchanged. Description: Displacement of [3H]furoyl-LIGRL-NH2 from human protease-activated receptor 2 in NCTC-2544 cells. It is filed as cell-based.
Data set [7] concerns RAW264.7. Description: Antiinflammatory activity in mouse RAW264.7 cells assessed as inhibition of LPS-induced COX2 mRNA expression at 5 to 50 uM for 1 hr followed by stimulation with LPS for 4 hrs QT-PCR analysis. It is filed as functional, cell-based.
For data set [8], the target named is MAP kinase p38 (Mus musculus) (UniProt P47811+O08911+Q9WUI1+Q9Z1B7). Description: Inhibition of LPS-induced p38 phosphorylation in mouse RAW264.7 cells at 5 to 50 uM for 1 hr followed by stimulation with LPS for 5,10 or 15 mins by western blot analysis. It is filed as cell-based.
Data set [9] has as its system RAW264.7. Description: Antiinflammatory activity in mouse RAW264.7 cells assessed as inhibition of LPS-induced iNOS expression compound pretreated for 1 hr followed by stimulation with LPS for 24 hrs by Western blot analysis. It is filed as functional, cell-based.
In data set [10] the test system is RAW264.7. Description: Antiinflammatory activity in mouse RAW264.7 cells assessed as inhibition of LPS-induced iNOS mRNA level compound pretreated for 1 hr followed by stimulation with LPS for 24 hrs by qRT-PCR analysis. It is filed as functional, cell-based.
The target in data set [11] is T2, Proteinase-activated receptor 2 (Mus musculus) (UniProt P55086).
T2 sequence (whole entry): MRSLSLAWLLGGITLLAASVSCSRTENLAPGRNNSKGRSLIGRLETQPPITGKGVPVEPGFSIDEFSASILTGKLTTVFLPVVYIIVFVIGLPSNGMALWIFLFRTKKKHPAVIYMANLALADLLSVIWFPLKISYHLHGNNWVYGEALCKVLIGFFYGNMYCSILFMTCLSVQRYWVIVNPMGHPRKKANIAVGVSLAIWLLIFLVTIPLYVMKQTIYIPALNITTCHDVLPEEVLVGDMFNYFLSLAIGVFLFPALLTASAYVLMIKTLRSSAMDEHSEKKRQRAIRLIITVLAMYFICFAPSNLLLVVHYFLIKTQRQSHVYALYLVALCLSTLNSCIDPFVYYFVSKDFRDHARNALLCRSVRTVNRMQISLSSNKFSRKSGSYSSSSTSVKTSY
In words: Antagonist activity at protease-activated receptor 2 in LPS-stimulated mouse RAW264.7 cells assessed as inhibition of NF-kappaB activation compound pretreated for 1 hr followed by stimulation with LPS for 8 hrs by luciferase reporter gene assay. It is filed as cell-based.

Data set [12] deals with RAW264.7. Description: Antiinflammatory activity in mouse RAW264.7 cells assessed as inhibition of LPS-induced NO production at 5 to 50 uM for 1 hr followed by stimulation with LPS for 24 hrs by Griess reaction. It is filed as functional, cell-based.
The subject of data set [13] is RAW264.7. In words: Antiinflammatory activity in mouse RAW264.7 cells assessed as inhibition of LPS-induced IL-1beta expression compound pretreated for 1 hr followed by stimulation with LPS for 24 hrs by EIA. It is filed as functional, cell-based.
Data set [14] has as its system Mus musculus. In words: Antiinflammatory activity in C57BL/6 mouse assessed as reduction of LPS-induced sepsis at 15 mg/kg, po administered 1 hr before LPS challenge measured up to 60 hrs. It is filed as functional. Also noted: scale not given: the % may be the effect or the level left.
Data set [15] relates to Mus musculus. In words: Antiinflammatory activity in C57BL/6 mouse assessed as reduction of LPS-induced sepsis at 30 mg/kg, po administered 1 hr before LPS challenge measured up to 60 hrs. It is filed as functional. Also noted: scale not given: the % may be the effect or the level left.
Data set [16] addresses T2, Proteinase-activated receptor 2 (Mus musculus). In words: Antagonist activity at protease-activated receptor 2 in LPS-stimulated mouse RAW264.7 cells assessed as inhibition of AP-1 activation compound pretreated for 1 hr followed by stimulation with LPS for 8 hrs by luciferase reporter gene assay. It is filed as cell-based.
In data set [17] the test system is RAW264.7. In words: Antiinflammatory activity in mouse RAW264.7 cells assessed as inhibition of LPS-induced TNFalpha expression compound pretreated for 1 hr followed by stimulation with LPS for 24 hrs by EIA. It is filed as functional, cell-based.
Data set [18] concerns RAW264.7. In words: Cytotoxicity against mouse RAW264.7 cells assessed as cell viability at 3.125 to 200 uM after 24 hrs by MTT assay. To be noted: raw264.7, 24 h. It is filed as cell-based.
The subject of data set [19] is RAW264.7. In words: Antiinflammatory activity in mouse RAW264.7 cells assessed as inhibition of LPS-induced IL-6 expression compound pretreated for 1 hr followed by stimulation with LPS for 24 hrs by EIA. It is filed as functional, cell-based.
For data set [20], the system named is RAW264.7. Description: Antiinflammatory activity in mouse RAW264.7 cells assessed as inhibition of LPS-induced COX2 expression at 5 to 50 uM for 1 hr followed by stimulation with LPS for 24 hrs by Western blot analysis. It is filed as functional, cell-based.
Data set [21] deals with RAW264.7. In words: Antiinflammatory activity in mouse RAW264.7 cells assessed as inhibition of LPS-induced PGE2 production at 5 to 50 uM for 1 hr followed by stimulation with LPS for 24 hrs […]. It is filed as functional, cell-based.
In data set [22] the test system is RAW264.7. Description: Inhibition of LPS-induced Erk phosphorylation in mouse RAW264.7 cells at 5 to 50 uM for 1 hr followed by stimulation with LPS for 5,10 or 15 mins by western blot analysis. It is filed as cell-based.
In data set [23] the test system is Mus musculus. Description: Antiinflammatory activity in C57BL/6 mouse assessed as reduction of LPS-induced sepsis at 7.5 mg/kg, po administered 1 hr before LPS challenge measured up to 60 hrs. It is filed as functional. Also noted: scale not given: the % may be the effect or the level left.
The test system of data set [24] is RAW264.7. In words: Inhibition of LPS-induced JNK phosphorylation in mouse RAW264.7 cells at 5 to 50 uM for 1 hr followed by stimulation with LPS for 5,10 or 15 mins by western blot analysis. It is filed as cell-based.

For `COc1ccc2nc(Oc3ccc(Cl)c(Cl)c3)nc(NCc3ccco3)c2c1`, the inhibition result in data set [1] was “inactive”.
As for `Cc1ccc(CNc2nc(Oc3ccc(Cl)cc3Cl)nc3ccc(Cl)cc23)o1`, in data set [1], the inhibition entry is “inactive”.
With `Cc1ccc(CNc2nc(Oc3cc(Cl)cc(Cl)c3)nc3ccc(F)cc23)o1`, the inhibition in data set [1] was below 10%. The Activity in [2] stood at 24%.
With `CS(=O)(=O)Nc1ccc([N+](=O)[O-])cc1OC1CCCCC1`, the inhibition entry in data set [3] is “Active”.
On to `Cc1ccoc1CNc1nc(Oc2ccc(Cl)c(Cl)c2)nc2ccc(F)cc12`, for which, in data set [1], the inhibition is below 10%.
For `COc1ccc2nc(Oc3ccc(Cl)cc3Cl)nc(NCc3occc3C)c2c1`, the inhibition in data set [1] is 33.1%. In addition, the concentration for half-maximal inhibition (IC50) in data set [4] was above 10000 nM.
Turning to `COc1ccc2nc(Oc3cccc(Cl)c3)nc(NCc3ccco3)c2c1`, the inhibition entry in data set [1] was “inactive”.
On to `CCCCCNc1nc(NCc2ccco2)c2cc(F)ccc2n1`, for which the inhibition in [1] came out at 73.2%. The half-maximal inhibitory concentration (IC50) in [4] is 690 nM.
For `Cc1ccoc1CNc1nc(Oc2cccc(Cl)c2)nc2ccccc12`, in data set [1], the inhibition entry was “inactive”.
On the same count and under the same terms, the same measure for `COc1ccc2nc(Oc3cc(Cl)cc(Cl)c3)nc(NCc3ccco3)c2c1`: “inactive”; for `Clc1ccc(Oc2nc(NCc3ccco3)c3cc(Cl)ccc3n2)c(Cl)c1`: below 10%.
In the case of `CC[C@H](C)[C@H](NC(=O)[C@H](CC1CCCCC1)NC(=O)c1ccno1)C(=O)N1CCC2(C=Cc3ccccc32)CC1`, in data set [5], the midpoint of inhibition, the IC50, lay at 2000 nM.
Turning to `Cc1ccoc1CNc1nc(Oc2ccc(Cl)cc2Cl)nc2ccccc12`, in data set [1], the inhibition result is “inactive”.
For the molecule `NCC[C@H](NC(=O)CNC(=O)Nc1ccc2c(c1)c(CN1CCCC1)cn2Cc1c(Cl)cccc1Cl)C(=O)N[C@H](Cc1ccccc1)C(=O)Nc1ccccc1`, the affinity in [6], expressed as Ki, was 1940 nM.
In the case of `Cc1ccc(CNc2nc(Oc3ccc(Cl)c(Cl)c3)nc3ccc(F)cc23)o1`, the inhibition result in data set [1] is “inactive”.
Take `NCCCC[C@H](NC(=O)CNC(=O)Nc1ccc2c(c1)c(CN1CCCC1)cn2Cc1c(Cl)cccc1Cl)C(=O)N[C@H](Cc1ccccc1)C(=O)NC(c1ccccc1)c1ccccc1`: the affinity in data set [6], expressed as Ki, was 627 nM.
For `Clc1ccc(COc2nc(NCc3ccco3)c3ccccc3n2)c(Cl)c1`, in data set [1], the inhibition stood at 16.5%.
On to `Cc1ccoc1CNc1nc(Oc2cc(Cl)cc(Cl)c2)nc2ccc(F)cc12`, for which the inhibition entry in data set [7], in data set [12], in [20], in [21] and in [22] was “Active” each time. The inhibition result in [8] and in data set [24] was “inactive” in each case. Moreover, the inhibition entry in data set [9] is “Dose-dependent effect”; in data set [1], 47.7%; in [10] it was “Dose-dependent effect”; in data set [11] it was “Dose-dependent effect”; in data set [13] it was “Dose-dependent effect”; in data set [16] it was “Dose-dependent effect”. Besides, the inhibition entry in data set [17] and in [19] was “Dose-dependent effect” each time. Further, the Activity in [14] is 60%; in data set [15] it was 20%; in [2] it was 12%; in data set [18] it was “Non-toxic”; in [23] it was 80%. In addition, the IC50 in data set [4] worked out at 2800 nM.
With `Clc1cc(Cl)cc(COc2nc(NCc3ccco3)c3ccccc3n2)c1`, in data set [1], the inhibition entry is “inactive”.
With `COc1ccc(Oc2nc(NCc3occc3C)c3ccccc3n2)cc1`, the inhibition in [1] turned out to be 23.1%.
On the same count and under the same terms, the same measure for `Clc1ccc(Oc2nc(NCc3ccco3)c3ccccc3n2)cc1Cl`: “inactive”.
